Consider 16 molecules from ChEMBL document CHEMBL6092188, “Structure-Guided Conformational Restriction Leading to High-Affinity, Selective, and Cell-Active Tetrahydroisoquinoline-Based Noncovalent Keap1-Nrf2 Inhibitors” (J Med Chem, 2024).

Some results are limits rather than exact numbers.

A short description of series [1]: Solubility of the compound in PBS buffer and 0.5% DMSO at 200 uM by LC-MS analysis. Format: physicochemical.
A short description of series [2]: in vitro. Particulars: male, CD-1, mouse, liver microsomes. In general terms: Microsomes from liver hold many membrane-bound enzymes, among them those of drug oxidation.
Series [3] in a line: Metabolic stability in male CD-1 mouse liver microsomes assessed as parent compound remaining measured after 30 mins in presence of NADPH regenerating system by LC-MS analysis. Particulars: read-out: Stability. Format: ADME, Microsome.
Series [4] in a line: Metabolic stability in human liver microsomes assessed as half life measured after 1 hr in presence of NADPH regenerating system by LC-MS analysis. It counts as ADME, Microsome.
The nature of series [5]: Metabolic stability in male Sprague-Dawley rat liver microsomes assessed as parent compound remaining measured after 30 mins in presence of NADPH regenerating system by LC-MS analysis. It counts as ADME, Microsome. Particulars: read-out: Stability.
A short description of series [6]: in vitro. The following applies: male, Sprague-Dawley, rat, liver microsomes.
Series [7] is described as follows: Metabolic stability in human liver microsomes assessed as parent compound remaining measured after 30 mins in presence of NADPH regenerating system by LC-MS analysis. Format: ADME, Microsome. The following applies: read-out: Stability.
Series [8] is described as follows: Permeability of the compound in PBS buffer at pH 7.4 at 200 uM measured after 5 hrs by PAMPA assay. It counts as ADME. The following applies: for Papp at 5 h, 200 µM: PAMPA, pH 7.4, read-out: permeability.

On to `COc1cccc(S(=O)(=O)NCc2cccc(C(NC(=O)c3cccc4c3-c3ccccc3C4=O)C(=O)O)c2)c1` (centres undefined), for which, in series [1], the solubility entry was “soluble”.

As a reminder, the half-life is the time needed for the level to fall by half in the phase considered. `COc1ccc(S(=O)(=O)NCc2cccc(C(NC(=O)c3cccc4c3-c3ccccc3C4=O)C(=O)O)c2)cc1` (centres undefined) displayed a half-life at 1 h in the series “in vitro [2]” of 3.6 min. Moreover, in series [3], the remaining at 0.5 h is less than 3%.

Consider `CN(C)c1cccc(S(=O)(=O)NCc2cccc([C@@H](NC(=O)c3cccc4c3-c3ccccc3C4=O)C(=O)O)c2)c1`, for which the solubility result in series [1] is reported as “soluble”.

As for `CCOc1ccc(S(=O)(=O)N2CCc3ccc(C(NC(=O)c4cccc5c4-c4cccnc4C5=O)C(=O)O)cc3C2)cc1C#N` (centres undefined), the half-life at 1 h in the series “in vitro [2]” was 25 min. In series [3], the remaining at 0.5 h was found to be 39%.

`Cn1c2ccccc2c2c(C(=O)NC(C(=O)O)c3ccc4c(c3)CN(S(=O)(=O)c3cccc(Br)c3)CC4)cccc21` (centres undefined) had a half-life at 1 h in the series “in vitro [2]” of 5.4 min. Also, the remaining at 0.5 h in series [3] was less than 3%.

As for `Cn1c2ccccc2c2c(C(=O)NC(C(=O)O)c3ccc4c(c3)CN(S(=O)(=O)c3cccc(C#N)c3)CC4)cccc21` (centres undefined), the half-life in series [4] turned out to be 200 min. For the same molecule, the values for the remaining at 0.5 h in series [5], in series [3] and in series [7] were 92%, 22% and 89%, respectively. The figures for the half-life at 1 h in “in vitro [2]” and in the series “in vitro [6]” were 15 min and 400 min, respectively. Also, in series [8], the Papp at 5 h, 200 µM is 2.2 ×10⁻⁶ cm/s.

Take `CCOc1ccc(S(=O)(=O)N2CCc3ccc(C(NC(=O)c4cccc5c4c4ccccc4n5C)C(=O)O)cc3C2)cc1C#N` (centres undefined): in series [4], the half-life worked out at 47 min. Moreover, the remaining at 0.5 h amounted to 86% in series [5], 8% in series [3] and 66% in series [7]. The half-life at 1 h in “in vitro [2]” came out at 8 min; in “in vitro [6]” it was 280 min. Moreover, the Papp at 5 h, 200 µM in series [8] turned out to be 4.7 ×10⁻⁶ cm/s.

`N#Cc1cc(S(=O)(=O)N2CCc3ccc(C(NC(=O)c4cccc5c4-c4ccccc4C5=O)C(=O)O)cc3C2)ccc1F` (centres undefined): the half-life in series [4] came to 4.5 min. Also, the remaining at 0.5 h in series [5] is 77%; in series [3], less than 3%; in series [7], less than 3%. Further, the half-life at 1 h in the series “in vitro [2]” turned out to be 3.2 min; in “in vitro [6]”, 78 min.

In “in vitro [2]”, `O=C(NC(C(=O)O)c1ccc2c(c1)CN(S(=O)(=O)c1cccc(Br)c1)CC2)c1cccc2c1-c1ccccc1C2=O` (centres undefined) returned a half-life at 1 h of 3.3 min. For the same molecule, in series [3], the remaining at 0.5 h was found to be 0%.

As for `Cn1c2ccccc2c2c(C(=O)NC(C(=O)O)c3ccc4c(c3)CN(S(=O)(=O)c3ccc(F)c(C#N)c3)CC4)cccc21` (centres undefined), the half-life in series [4] was 51 min. Moreover, the remaining at 0.5 h in series [5] was determined as 86%; in series [3], 16%; in series [7], 64%. For the same molecule, the half-life at 1 h in the series “in vitro [2]” came out at 13 min; in “in vitro [6]”, 240 min. Moreover, the Papp at 5 h, 200 µM in series [8] worked out at 4.7 ×10⁻⁶ cm/s.

As to `COc1ccc(S(=O)(=O)N2CCc3ccc(C(NC(=O)c4cccc5c4-c4ccccc4C5=O)C(=O)O)cc3C2)cc1` (centres undefined), the solubility result in series [1] is “soluble”. The molecule further registered a half-life at 1 h in the series “in vitro [2]” of 3.8 min. Further, the remaining at 0.5 h in series [3] was less than 3%. Besides, in series [8] (pampa, pH 7.4, 5 h, 200 µM), the permeability result is on record as “Permeable”.

In the series “in vitro [2]”, `CCOc1ccc(S(=O)(=O)N2CCc3ccc(C(NC(=O)c4cccc5c4-c4ccccc4C5F)C(=O)O)cc3C2)cc1C#N` (centres undefined) had a half-life at 1 h of 12 min. The remaining at 0.5 h in series [3] is 19%.

For `CCOc1ccc(S(=O)(=O)N2CCc3ccc(C(NC(=O)c4cccc5c4-c4ccccc4C5=O)C(=O)O)cc3C2)cc1C#N` (centres undefined), the half-life in series [4] amounted to 5.1 min. Also, the remaining at 0.5 h was 78% in series [5], 3% in series [3] and less than 3% in series [7]. Moreover, the half-life at 1 h in the series “in vitro [2]” was determined as 3.8 min; in “in vitro [6]”, 99 min.

Take `N#Cc1cccc(S(=O)(=O)N2CCc3ccc(C(NC(=O)c4cccc5c4-c4ccccc4C5=O)C(=O)O)cc3C2)c1` (centres undefined): the half-life in series [4] is 6.1 min. The values for the remaining at 0.5 h in series [5], in series [3] and in series [7] were 83%, 7.5% and less than 3%, respectively. Further, the half-life at 1 h in the series “in vitro [2]” stood at 6.1 min; in the series “in vitro [6]”, 130 min.

Consider `COc1ccc(S(=O)(=O)N2CCc3ccc(C(NC(=O)c4cccc5c4-c4ccccc4C5=O)C(=O)O)cc3C2)cc1C#N` (centres undefined), for which, in the series “in vitro [2]”, the half-life at 1 h was 4.5 min. Also, the remaining at 0.5 h in series [3] turned out to be 3.5%.

As for `CCOc1ccc(S(=O)(=O)N2CCc3ccc(C(NC(=O)c4cccc5c4-c4ccccc4C5)C(=O)O)cc3C2)cc1C#N` (centres undefined), the half-life at 1 h in the series “in vitro [2]” came out at 4.7 min. Besides, the remaining at 0.5 h in series [3] was less than 3%.
